In data set [1] the test system is passive cutaneous anaphylaxis. The data set can be described thus: Passive cutaneous anaphylaxis tests (PCA) on rats. The data set is classed as in vivo, SLC-strain Wistar rat. The settings on record: intravenous, rat PCA; for inhibition in vivo at 0.3 mg/kg / inhibition in vivo at 3 mg/kg: read-out: Inhibition rate. Here is the method: To test the effectiveness of compounds of this invention for treatment of allergic asthma, evaluation of antiallergy effect was carried out by passive cutaneous anaphylaxis tests (PCA) on rats.
Rats (SLC-strain Wistar rat) were immunized with egg albumin which had been recrystallized five times and Bodetella pertussis vaccine, and, after 13 days, serum was taken from these rats.
This serum was diluted to 1/128 and intradermally injected into the back of rats. 48 hours thereafter, the compounds of the invention as set forth in the following table in the form of salts thereof with tris (hydroxymethyl)methyl ammonium dissolved in saline in the indicated quantities as the salts were administered intravenously, and 5 minutes thereafter, saline in which egg albumin and Evans Blue were dissolved was challenged intravenously. After 30 minutes, the animals were killed and the skins were removed and the quantity of the Evans Blue which has leaked as a result of the antigen antibody reaction was extracted through the use of Na2 SO4 solution and acetone, colorimetry being carried out at 620 mμ.

Data set [2] concerns allergic asthma. The data set can be described thus: Classification in view of activity on treatment of allergic asthma. The data set is classed as in vivo. The settings on record: first group most preferable, second more preferable, third preferable.
Data set [3] in a line: 50% lethal dose (LD50), i.v., mouse. As to conditions: in vivo, iv.
Where [4] appears, read: dose 0.3 mg/kg (quantity as the tris (hydroxymethyl) methyl ammonium salt).
The mark [5] stands for this setting: dose 3 mg/kg (quantity as the tris (hydroxymethyl) methyl ammonium salt).

As to `CCCCc1ccc2nc(O)c3c(=O)cc(C(=O)O)oc3c2c1` [Compound 6, 9-n-butyl-5-hydroxy-quinolo[4,3-b]-pyran-4-one-2-carboxylic acid], the inhibition in vivo at 0.3 mg/kg in data set [1] (setting [4]) is 26%. In addition, in data set [1] (setting [5]), the inhibition in vivo at 3 mg/kg came out at 94%.
For `O=C(O)c1cc(=O)c2c(O)nc3ccc(Br)cc3c2o1` [Compound 13, 9-bromo-5-hydroxy-quinolo[4,3-b]-pyran-4-one-2-carboxylic acid], the inhibition in vivo at 3 mg/kg in data set [1] (setting [5]) was 90%.
With `O=C(O)c1cc(=O)c2c(O)nc3ccc(OCc4ccccc4)cc3c2o1` [Compound 8, 9-benzyloxy-5-hydroxy-quinolo[4,3-b]-pyran-4-one-2-carboxylic acid], the inhibition in vivo at 0.3 mg/kg in data set [1] (setting [4]) is 34%. Also, in data set [1] (setting [5]), the inhibition in vivo at 3 mg/kg is 96%. In addition, the “preference group in view of activity on treatment of allergic asthma” value (“preference group in view of activity” below) in data set [2] was “more preferable”.
With `O=C(O)c1cc(=O)c2c(O)nc3ccc(-c4ccccc4)cc3c2o1` [Compound 10, 9-phenyl-5-hydroxy-quinolo[4,3-b]-pyran-4-one-2-carboxylic acid], the inhibition in vivo at 3 mg/kg in data set [1] (setting [5]) stood at 90%. For the same molecule, the “preference group in view of activity” value in data set [2] is reported as “preferable”.
`CCc1ccc2nc(O)c3c(=O)cc(C(=O)O)oc3c2c1` [Compound 17, 9-ethyl-5-hydroxy-quinolo[4,3-b]-pyran-4-one-2-carboxylic acid]: the inhibition in vivo at 3 mg/kg in data set [1] (setting [5]) amounted to 90%.
On the same count and under the same terms, in the case of `COc1ccc2c(c1)nc(O)c1c(=O)cc(C(=O)O)oc12` [Compound 15, 8-methoxy-5-hydroxy-quinolo[4,3-b]-pyran-4-one-2-carboxylic acid] it was 90%.
`COc1ccc2nc(O)c3c(=O)cc(C(=O)O)oc3c2c1` [Compound 4, 9-methoxy-5-hydroxy-quinolo[4,3-b]-pyran-4-one-2-carboxylic acid]: the inhibition in vivo at 0.3 mg/kg in data set [1] (setting [4]) turned out to be 38%. In addition, the inhibition in vivo at 3 mg/kg in data set [1] (setting [5]) amounted to 98%.
For the molecule `Cc1ccc2c(nc(O)c3c(=O)cc(C(=O)O)oc32)c1C` [Compound 1, 7,8-dimethyl-5-hydroxy-quinolo [4,3-b]-pyran-4-one-2-carboxylic acid], the inhibition in vivo at 0.3 mg/kg in data set [1] (setting [4]) came to 98%. Also, in data set [1] (setting [5]), the inhibition in vivo at 3 mg/kg was determined as 100%. In data set [2], the “preference group in view of activity” value was “most preferable”. In addition, in data set [3], the LD50 was 560 mg/kg and the selectivity ratio came to 20000.
For `Cc1cc(C)c2nc(O)c3c(=O)cc(C(=O)O)oc3c2c1` [Compound 12, 7,9-dimethyl-5-hydroxy-quinolo[4,3-b]-pyran-4-one-2-carboxylic acid], the inhibition in vivo at 3 mg/kg in data set [1] (setting [5]) was 90%.
For the molecule `O=C(O)c1cc(=O)c2c(O)nc3ccc(Cl)cc3c2o1` [Compound 7, 9-chloro-5-hydroxy-quinolo[4,3-b]-pyran-4-one-2-carboxylic acid], the inhibition in vivo at 0.3 mg/kg in data set [1] (setting [4]) was 67%. Besides, the inhibition in vivo at 3 mg/kg in data set [1] (setting [5]) came to 100%. Moreover, the “preference group in view of activity” value in data set [2] is on record as “most preferable”.
As to `Cc1cccc2c1nc(O)c1c(=O)cc(C(=O)O)oc12` [Compound 3, 7-methyl-5-hydroxy-quinolo [4,3-b]-pyran-4-one-2-carboxylic acid], the inhibition in vivo at 0.3 mg/kg in data set [1] (setting [4]) came out at 27%. In addition, the inhibition in vivo at 3 mg/kg in data set [1] (setting [5]) worked out at 100%.
As for `Cc1c(Cl)ccc2c1nc(O)c1c(=O)cc(C(=O)O)oc12` [Compound 11, 7-methyl-8-chloro-5-hydroxy-quinolo[4,3-b]-pyran-4-one-2-carboxylic acid], the Inhibition rate in data set [1] (setting [4]) was found to be 26%; in data set [1] (setting [5]), 87%. Also, the “preference group in view of activity” value in data set [2] is on record as “more preferable”.
As for `CCOC(=O)c1ccc2nc(O)c3c(=O)cc(C(=O)O)oc3c2c1` [Compound 9, 9-ethoxycarbonyl-5-hydroxy-quinolo[4,3-b]-pyran-4-one-2-carboxylic acid], the inhibition in vivo at 0.3 mg/kg in data set [1] (setting [4]) worked out at 39%. In data set [1] (setting [5]), the inhibition in vivo at 3 mg/kg was determined as 100%. Besides, the “preference group in view of activity” value in data set [2] is given as “more preferable”.
On to `COc1cccc2c1nc(O)c1c(=O)cc(C(=O)O)oc12` [Compound 5, 7-methoxy-5-hydroxy-quinolo[4,3-b]-pyran-4-one-2-carboxylic acid], for which, in data set [1] (setting [4]), the inhibition in vivo at 0.3 mg/kg was found to be 37%. The inhibition in vivo at 3 mg/kg in data set [1] (setting [5]) amounted to 98%.
For `O=C(O)c1cc(=O)c2c(O)nc3ccc(F)cc3c2o1` [Compound 14, 9-fluoro-5-hydroxy-quinolo[4,3-b]-pyran-4-one-2-carboxylic acid], the inhibition in vivo at 3 mg/kg in data set [1] (setting [5]) is 90%.
Regarding `Cc1ccc2nc(O)c3c(=O)cc(C(=O)O)oc3c2c1` [Compound 2, 9-methyl-5-hydroxy-quinolo [4,3-b]-pyran-4-one-2-carboxylic acid], in data set [1] (setting [4]), the inhibition in vivo at 0.3 mg/kg is 63%. Moreover, the inhibition in vivo at 3 mg/kg in data set [1] (setting [5]) came out at 100%. Further, the “preference group in view of activity” value in data set [2] is “most preferable”.
As for `COc1cc2nc(O)c3c(=O)cc(C(=O)O)oc3c2cc1OC` [Compound 16, 8,9-dimethoxy-5-hydroxy-quinolo[4,3-b]-pyran-4-one-2-carboxylic acid], the inhibition in vivo at 3 mg/kg in data set [1] (setting [5]) turned out to be 90%.

Broadly, the LD50 is the dose at which mortality reaches 50%. Read a low LD50 as greater toxicity.

The record behind these values is patent publication US4086349A, “Quinolopyran-4-one-2-carboxylic acid derivatives and salts thereof as novel compounds and as medicines for treatment of allergic asthma” (Mitsubishi Yuka Pharmaceutical Co., Ltd., priority 1975, dated 1978).
